Experiment: Randomized control study of daily topical application in women with low vitamin D
Assay type: in vivo, human
Details: 3 months
Experimental: A study was carried out on 50 women with low vitamin D. The women were healthy and unmarried. Age, weight, height, and detailed medical history were recorded. Meticulous clinical examination was performed to rule out any diseases. A complete blood picture, including serum calcium, phosphorous, alkaline phosphatase, Parathormone and 25 Hydroxy-vitamin D (25OHD), was obtained. Two women had >30 ng/mL of 25OHD and were excluded from the study. The 25-Hydroxy Vitamin D3 level was measured in house by chemiluminescence immunoassay (CLIA), and 30 ng/mL was taken as normal, 21-29 ng/mL as insufficiency and 20 ng/mL as deficiency.
The participants were divided into two groups of 24 women each. All participants unequivocally agreed not to change their dietary habits and life style until the study was over. The group of women participating in the study were asked to apply the topical composition with Vitamin D3. Each gram of the composition delivered 5000 IU of vitamin D3. The second group used 1 gram of aloe vera gel. The participants had no knowledge to which group they belong. A second blood sample was taken at the end of 3 months, and the data was entered in the database and analyzed using a t-test to compare means between the two groups for all the parameters tested before and after topical use of VD and AVG. […]

C=C1CC[C@H](O)C/C1=C/C=C1\CCC[C@]2(C)[C@@H]([C@H](C)CCCC(C)C)CC[C@@H]12 [Vitamin D3, cholecalciferol]
safety of delivery through the dermal route: can safely be delivered through the dermal route

Source: US9707243B2, “Topical composition with vitamin D3” (priority 2014, dated 2017)
